# According to paper PMC3493683 (Journal of medicinal chemistry, 2012):
# Target: recombinant β-secretase (memapsin 2, BACE 1) (Homo sapiens, UniProt P56817)
# Assay: BACE 1 inhibitory activity against recombinant β-secretase
# Assay type: biochemical
# Conditions: for BACE 1 inhibitory activity (in words): recombinant β-secretase
# Chain of recombinant β-secretase (memapsin 2, BACE 1) (P56817 46-501): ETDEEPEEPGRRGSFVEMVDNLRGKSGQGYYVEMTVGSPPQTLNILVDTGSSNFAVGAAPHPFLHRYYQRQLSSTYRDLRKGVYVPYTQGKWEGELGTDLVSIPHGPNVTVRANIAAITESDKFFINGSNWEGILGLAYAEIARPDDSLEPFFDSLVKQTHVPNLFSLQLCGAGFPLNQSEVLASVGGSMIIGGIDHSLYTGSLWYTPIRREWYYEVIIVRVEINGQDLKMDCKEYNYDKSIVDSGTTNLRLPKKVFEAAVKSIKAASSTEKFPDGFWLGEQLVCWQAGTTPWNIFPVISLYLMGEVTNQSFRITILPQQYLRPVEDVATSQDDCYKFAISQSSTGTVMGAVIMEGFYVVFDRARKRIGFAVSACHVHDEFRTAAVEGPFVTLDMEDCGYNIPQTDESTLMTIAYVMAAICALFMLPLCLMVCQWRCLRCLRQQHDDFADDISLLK
SMILES,BACE 1 inhibitory activity (in words),further results
CC(C)CN(C)C(=O)[C@@H](NC[C@H](Cc1ccccc1)NC(=O)c1cc(C(=O)N[C@H](C)c2ccccc2)cc(N(C)S(C)(=O)=O)c1)[C@H](C)O [Inhibitor 7],abolished all BACE 1 inhibitory activity,–
CC(C)CNC[C@@H](NC[C@H](Cc1ccccc1)NC(=O)c1cc(C(=O)N[C@H](C)c2ccccc2)cc(N(C)S(C)(=O)=O)c1)[C@H](C)O [Inhibitor 9],total loss in potency,–
CCC[C@H](O)[C@H](NC[C@H](Cc1ccccc1)NC(=O)c1cc2c3c(c1)c(CC)cn3CCS(=O)(=O)N2C)C(=O)NCC(C)C [Inhibitor 19],–,improvement in the potency (BACE 1) (compared with inhibitor 18): around 18 fold
CCC[C@H](O)[C@H](NC[C@H](Cc1ccccc1)NC(=O)c1cc2c3c(c1)c(CC)cn3CC(C)(C)S(=O)(=O)N2C)C(=O)NCC(C)C [Inhibitor 20],–,potency enhancement (BACE 1) (over unsubstituted inhibitor 19): > 10 fold
